Assay results reported in ChEMBL document CHEMBL6114991, “Design, synthesis, and biological evaluation of novel quinoline carboxylic acid based styryl/alkyne hybrid molecule as a potent anti-adipogenic and antidyslipidemic agent via activation of Wnt/β-catenin pathway” (Eur J Med Chem, 2025).
Activity calls are given as the source filed them. The calls are words filed in the database; no cut-off is given here.

Tests used:
[1] = system: 3T3-L1; experiment: Anti-adipogenic activity in mouse 3T3-L1 cells at 20 uM relative to control; format: functional
[2] = system: 3T3-L1; experiment: Cytotoxicity against mouse 3T3-L1 cells assessed as cell viability at 20 uM incubated for 48 hrs by MTT assay; format: toxicity, cell-based; details: 3t3-l1, 48 h
[3] = system: 3T3-L1; experiment: Anti-adipogenic activity in mouse 3T3-L1 cells assessed as suppression of adipogenesis at 20 uM measured for 72 hrs by oil red O staining based analysis; format: functional
[4] = system: 3T3-L1; experiment: Anti-adipogenic activity in MDI-induced mouse 3T3-L1 cells assessed as suppression of adipogenesis at 0.3 uM by oil red O staining based analysis; format: functional, cell-based; details: time 72.0 hrs
[5] = system: 3T3-L1; experiment: Cytotoxicity against mouse 3T3-L1 cells assessed as cell viability at 30 uM incubated for 48 hrs by MTT assay; format: toxicity, cell-based; details: 3t3-l1, 48 h
[6] = system: 3T3-L1; experiment: Anti-adipogenic activity in mouse 3T3-L1 cells assessed as reduction in lipid accumulation at 10 uM by microscopic analysis; format: functional, cell-based
[7] = system: 3T3-L1; experiment: Anti-adipogenic activity in mouse 3T3-L1 cells assessed as suppression of adipogenesis at 30 uM measured for 72 hrs by oil red O staining based analysis; format: functional, cell-based

## Cc1ccc(/C=C/c2ccc(-c3cc(C(=O)O)c4cc(Cl)ccc4n3)cc2)cc1
[1]; time 72 hrs
  Activity: 76%
[2]
  Activity: Toxic

## COc1ccc2nc(-c3ccc(/C=C/c4ccc(C)cc4)cc3)cc(C(=O)O)c2c1
[1]; time 72.0 hrs
  Activity: inactive
[2]
  Activity: Non-toxic
[3]
  Activity: 70%

## O=C(O)c1cc(-c2ccc(/C=C/c3ccc4ccccc4c3)cc2)nc2ccccc12
[1]; time 72.0 hrs
  Activity: inactive

## Cc1cccc(C#Cc2ccc(-c3cc(C(=O)O)c4ccccc4n3)cc2)c1
[1]; time 72 hrs
  Activity: 68%
[2]
  Activity: Toxic

## CCCCCOC(=O)c1cc(-c2ccc(/C=C/c3ccc(C)cc3)cc2)nc2ccc(F)cc12
[1]; time 72.0 hrs
  Activity: inactive
[2]
  Activity: Toxic

## CCCCCCOC(=O)c1cc(-c2ccc(/C=C/c3ccc(C)cc3)cc2)nc2ccc(F)cc12
[1]; time 72.0 hrs
  Activity: inactive
[2]
  Activity: Toxic

## Cc1ccc(/C=C/c2ccc(-c3cc(C(=O)OC(C)C)c4cc(F)ccc4n3)cc2)cc1
[1]; time 72.0 hrs
  Activity: inactive
[2]
  Activity: Toxic

## Cc1ccc(/C=C/c2ccc(-c3cc(C(=O)O)c4cc(C)ccc4n3)cc2)cc1
[1]; time 72.0 hrs
  Activity: inactive

## O=C(O)c1cc(-c2ccc(C#Cc3ccccc3)cc2)nc2ccccc12
[1]; time 72.0 hrs
  Activity: inactive

## O=C(O)c1cc(-c2ccc(/C=C/c3ccc(Cl)cc3)cc2)nc2ccccc12
[1]; time 72.0 hrs
  Activity: inactive

## Cc1ccc(/C=C/c2ccc(-c3cc(C(=O)O)c4cc(C)cc(Cl)c4n3)cc2)cc1
[1]; time 72.0 hrs
  Activity: inactive

## Cc1ccc(/C=C/c2ccc(-c3cc(C(=O)O)c4cc(OC(F)(F)F)ccc4n3)cc2)cc1
[1]; time 72.0 hrs
  Activity: inactive

## CCCCOC(=O)c1cc(-c2ccc(/C=C/c3ccc(C)cc3)cc2)nc2ccc(F)cc12
[1]; time 72.0 hrs
  Activity: inactive
[2]
  Activity: Toxic

## O=C(O)c1cc(-c2ccc(/C=C/c3ccccc3)cc2)nc2ccccc12
[1]; time 72.0 hrs
  Activity: inactive

## COC(=O)c1cc(-c2ccc(/C=C/c3ccc(C)cc3)cc2)nc2ccc(F)cc12
[1]; time 72.0 hrs
  Activity: inactive
[2]
  Activity: Toxic

## O=C(O)c1cc(-c2ccc(/C=C/c3ccccn3)cc2)nc2ccccc12
[1]; time 72.0 hrs
  Activity: inactive

## Cc1ccc(C#Cc2ccc(-c3cc(C(=O)O)c4ccccc4n3)cc2)cc1
[1]; time 72 hrs
  Activity: 74%

## CC(C)(C)c1ccc(C#Cc2ccc(-c3cc(C(=O)O)c4ccccc4n3)cc2)cc1
[1]; time 72 hrs
  Activity: 69%
[4]
  Activity: Active
[2]
  Activity: Non-toxic
[5]
  Activity: Toxic
[3]
  Activity: 70%

## Cc1cc([N+](=O)[O-])ccc1NS(=O)(=O)c1cc(Cl)ccc1Cl
[6]
  Activity: Active

## COc1ccc(C#Cc2ccc(-c3cc(C(=O)O)c4ccccc4n3)cc2)cc1
[1]; time 72 hrs
  Activity: 69%
[2]
  Activity: Toxic

## CCCOC(=O)c1cc(-c2ccc(/C=C/c3ccc(C)cc3)cc2)nc2ccc(F)cc12
[1]; time 72.0 hrs
  Activity: inactive
[2]
  Activity: Toxic

## O=C(O)c1ccc(/C=C/c2ccc(-c3cc(C(=O)O)c4ccccc4n3)cc2)cc1
[1]; time 72.0 hrs
  Activity: inactive
[2]
  Activity: Toxic

## Cc1ccc(/C=C/c2ccc(-c3cc(C(=O)O)c4ccccc4n3)cc2)cc1
[1]; time 72 hrs
  Activity: 68%
[4]
  Activity: inactive
[2]
  Activity: Non-toxic
[7]
  Activity: Active
[5]
  Activity: Toxic
[3]
  Activity: 70%

## O=C(O)c1cc(-c2ccc(C#Cc3ccc(F)cc3)cc2)nc2ccccc12
[1]; time 72.0 hrs
  Activity: inactive
[2]
  Activity: Toxic

## CCCCCCCCOC(=O)c1cc(-c2ccc(/C=C/c3ccc(C)cc3)cc2)nc2ccc(F)cc12
[1]; time 72.0 hrs
  Activity: inactive
[2]
  Activity: Toxic

## Cc1ccc(/C=C/c2ccc(-c3cc(C(=O)O)c4cccc(Cl)c4n3)cc2)cc1
[1]; time 72.0 hrs
  Activity: inactive

## CCOC(=O)c1cc(-c2ccc(/C=C/c3ccc(C)cc3)cc2)nc2ccc(F)cc12
[1]; time 72.0 hrs
  Activity: inactive
[2]
  Activity: Toxic

## O=C(O)c1cc(-c2ccc(/C=C/c3ccncc3)cc2)nc2ccccc12
[1]; time 72.0 hrs
  Activity: inactive
[4]
  Activity: Active
[5]
  Activity: Toxic

## CC(C)(C)c1ccc(/C=C/c2ccc(-c3cc(C(=O)O)c4ccccc4n3)cc2)cc1
[1]; time 72 hrs
  Activity: 67%
[2]
  Activity: Non-toxic
[3]
  Activity: 70%
